Calls of active or inactive are those of the source. No cut-off for these calls is given here.
Key:
[1] = Inhibition of Fam-labeled BimBH3 peptide binding to N-terminal 6His-tagged human recombinant HSP70 NBD (1 to 383 residues) D225T mutant expressed in Escherichia coli BL21 (DE3) assessed as inhibition constant incubated for 24 hrs by fluorescence polarization assay
K562 [2] = test: Inhibition of HSP70-Bim protein protein interaction in human K562 cells assessed as decrease in AKT protein expression at 2 uM incubated for 12 hrs by Western blot analysis; format: cell-based
[3] = Inhibition of Bim (unknown origin)- N-terminal 6His-tagged human recombinant HSP70 NBD (1 to 383 residues) expressed in Escherichia coli BL21 (DE3) protein protein interaction assessed as suppression of BimBH3-stimulated HSP70 ATPase activity
[4] = Cmax in Sprague-Dawley rat at 3 mg/kg, iv measured upto 24 hrs by LC-MS/MS analysis; format: ADME, organism-based; parameters: dose 3 mg/kg, time < 24 hrs, route iv; settings: in vivo
K562 [5] = test: Induction of apoptosis in HSP70 shRNA transfected human K562 cells assessed as increase in Annexin V+ cells at 2 uM incubated for 24 hrs by Annexin V/PI staining based flow cytometry analysis; format: functional, cell-based
Mus musculus [6] = test: In vivo disruption of HSP70-Bim protein protein interaction in BALB/c nu/nu mouse xenografted with Bcr-Abl independent human Imatinib-resistant K562-R1 cells at 2 mg/kg, ip administered every day for 14 days and measured on day 15 by Co-IP analysis; format: functional, organism-based; settings: time 15.0 day
BaF3 = test: Induction of apoptosis in mouse BaF3 cells assessed as apoptotic rate at 15 uM incubated for 24 hrs by annexin V/PI staining based flow cytometry analysis relative to control; format: toxicity, cell-based; settings: baf3, 24 h
[7] = Inhibition of Fam-labeled BimBH3 peptide binding to N-terminal 6His-tagged human recombinant HSP70 NBD (1 to 383 residues) D225T mutant expressed in Escherichia coli BL21 (DE3) assessed as dissociation constant incubated for 24 hrs by fluorescence polarization assay
[8] = Toxicity in BALB/c nu/nu mouse xenografted with Bcr-Abl independent human Imatinib-resistant K562-R1 cells assessed as reduction in body weight at 2 mg/kg, ip administered every day for 14 days and measured every 3 days; format: organism-based; settings: in vivo, 336 h, time 14 day
[9] = Antitumor activity against Bcr-Abl independent human Imatinib-resistant K562-R1 cells xenografted in BALB/c nu/nu mouse assessed as reduction in tumor weight by measuring T/C ratio at 2 mg/kg, ip administered every day for 14 days and measured on day 15; format: functional; settings: time 14 day
K562 [10] = test: Induction of apoptosis in HSP70 shRNA transfected human K562 cells assessed as increase in cleaved PARP level at 2 uM incubated for 24 hrs by Western blot analysis; format: functional, cell-based
[11] = Inhibition of Fam-labeled BimBH3 peptide binding to wild type N-terminal 6His-tagged human recombinant HSP70 NBD (1 to 383 residues) expressed in Escherichia coli BL21 (DE3) assessed as dissociation constant incubated for 24 hrs by fluorescence polarization assay
[12] = Inhibition of Fam-labeled BimBH3 peptide binding to N-terminal 6His-tagged human recombinant HSP70 NBD (1 to 383 residues) Y149A mutant expressed in Escherichia coli BL21 (DE3) assessed as dissociation constant incubated for 24 hrs by fluorescence polarization assay
K562 [13] = test: Induction of apoptosis in human K562 cells incubated for 24 hrs by annexin V/PI staining based flow cytometry analysis; format: functional, cell-based; settings: K562, 24 h
K562 [14] = test: Inhibition of HSP70-Bim protein protein interaction in human K562 cells incubated for 12 hrs by Co-IP analysis; format: cell-based; settings: dose 0-5 µM
[15] = Inhibition of Fam-labeled BimBH3 peptide binding to N-terminal 6His-tagged human recombinant HSP70 NBD (1 to 383 residues) expressed in Escherichia coli BL21 (DE3) assessed as inhibition constant incubated for 24 hrs by fluorescence polarization assay
[16] = system: Imatinib-resistant K562-R1; test: Antitumor activity against Bcr-Abl independent human Imatinib-resistant K562-R1 cells xenografted in BALB/c nu/nu mouse assessed as reduction in tumor growth at 2 mg/kg, ip administered every day for 14 days and measured on day 15; format: functional, organism-based; settings: time 15.0 day
K562 [17] = test: Inhibition of HSP70-Bim protein protein interaction in human K562 cells assessed as decrease in AKT phosphorylation at 2 uM incubated for 12 hrs by Western blot analysis; format: cell-based
BV-173 = test: Induction of apoptosis in human BV-173 cells incubated for 24 hrs by annexin V/PI staining based flow cytometry analysis; format: functional, cell-based; settings: BV-173, 24 h
[18] = Clearance in Sprague-Dawley rat at 3 mg/kg, iv measured upto 24 hrs by LC-MS/MS analysis; format: ADME, organism-based; settings: in vivo
[19] = Induction of apoptosis in human Imatinib-resistant K562-R3 cells incubated for 24 hrs by annexin V/PI staining based flow cytometry analysis; format: functional; settings: Imatinib-resistant K562-R3 cell
[20] = AUCt in Sprague-Dawley rat at 3 mg/kg, iv measured upto 24 hrs by LC-MS/MS analysis; format: ADME, organism-based; parameters: time < 24 hrs, dose 3 mg/kg, route iv; settings: in vivo
HEK293 = test: Induction of apoptosis in human HEK293 cells assessed as apoptotic rate at 15 uM incubated for 24 hrs by annexin V/PI staining based flow cytometry analysis relative to control; format: toxicity, cell-based; settings: hek293, 24 h
K562 [21] = test: Inhibition of HSP70-Bag3 protein protein interaction in human K562 cells at 10 uM incubated for 12 hrs by Co-IP analysis; format: cell-based
K562 [22] = test: Induction of apoptosis in Bim shRNA transfected human K562 cells assessed as increase in cleaved PARP level at 2 uM incubated for 24 hrs by Western blot analysis; format: functional, cell-based
Mus musculus [23] = test: In vivo disruption of HSP70-Bim protein protein interaction in BALB/c nu/nu mouse xenografted with Bcr-Abl independent human Imatinib-resistant K562-R1 cells assessed as destabilization of EIF4e protein level at 2 mg/kg, ip administered every day for 14 days and measured on day 15 by immunoblot analysis; format: functional, organism-based; settings: time 15.0 day
[24] = Inhibition of Fam-labeled BimBH3 peptide binding to N-terminal 6His-tagged human recombinant HSP70 NBD (1 to 383 residues) Y149A mutant expressed in Escherichia coli BL21 (DE3) assessed as inhibition constant incubated for 24 hrs by fluorescence polarization assay
Mus musculus [25] = test: In vivo disruption of HSP70-Bim protein protein interaction in BALB/c nu/nu mouse xenografted with Bcr-Abl independent human Imatinib-resistant K562-R1 cells assessed as destabilization of AKT protein level at 2 mg/kg, ip administered every day for 14 days and measured on day 15 by immunoblot analysis; format: functional, organism-based; settings: time 15.0 day
K562 [26] = test: Induction of apoptosis in Bim shRNA transfected human K562 cells assessed as increase in Annexin V+ cells at 2 uM incubated for 24 hrs by Annexin V/PI staining based flow cytometry analysis; format: functional, cell-based
K562 [27] = test: Inhibition of HSP70-Bim protein protein interaction in human K562 cells assessed as decrease in EIF4e phosphorylation at 2 uM incubated for 12 hrs by Western blot analysis; format: cell-based
[28] = Tmax in Sprague-Dawley rat at 3 mg/kg, iv measured upto 24 hrs by LC-MS/MS analysis; format: ADME, organism-based; settings: in vivo
K562 [29] = test: Inhibition of HSP70-Bim protein protein interaction in human K562 cells assessed as decrease in EIF4e protein expression at 2 uM incubated for 12 hrs by Western blot analysis; format: cell-based
[30] = Half life in Sprague-Dawley rat at 3 mg/kg, iv measured upto 24 hrs by LC-MS/MS analysis; format: ADME, organism-based; settings: in vivo

For CCN(CC)CCNC1=C(C#N)C(=O)c2cccc3c(SC4CCCCC4)ccc1c23, the Ki [1] was 5.15 µM, the inhibition (K562 [2]) was “Active” and the IC50 [3] was 15.8 µM. For the same compound, the inhibition [3] was “Dose-Dependent Effect”, the Cmax [4] was 2300 ng/mL and the Activity (K562 [5]) was “inactive”. The Activity (Mus musculus [6]) was “Active”, the Activity (BaF3) was < 10% and the Kd [7] was 3.12 µM. The Activity [8] was “Non-Toxic”, the T/C [9] was 33.51% and the Activity (K562 [10]) was “inactive”. The Kd [11] was 210 nM, the Kd [12] was 1580 nM and the EC50 (K562 [13]) was 1300 nM. For the same compound, the inhibition (K562 [14]) was “Dose-Dependent Effect”, the Ki [15] was 250 nM and the Activity [16] was “Active”. For the same compound, the inhibition (K562 [17]) was “Active”, the EC50 (BV-173) was 620 nM and the clearance [18] was 4.1 mL/min/kg. For the same compound, the EC50 [19] was 340 nM, the AUC(0-t) at 24 h [20] was 12200 ng·h/mL and the Activity (HEK293) was < 10%. For the same compound, the inhibition (K562 [21]) was “inactive”, the Activity (K562 [22]) was “inactive” and the Activity (Mus musculus [23]) was “Active”. The Ki [24] was 2720 nM, the Activity (Mus musculus [25]) was “Active” and the Activity (K562 [26]) was “inactive”. The inhibition (K562 [27]) was “Active”, the Tmax [28] was 1 h and the inhibition (K562 [29]) was “Active”. For the same compound, the half-life [30] was 312 min.

Reference: ChEMBL document CHEMBL5375966, “Exploiting the "Hot-Spots" of Hsp70-Bim Protein-Protein Interaction to Optimize the 1-Oxo-1H-phenalene-2,3-dicarbonitrile Analogues as Specific Hsp70-Bim Inhibitors” (J Med Chem, 2023)
